Where “and” joins values, the source holds several entries; their conditions need not be identical. Equal values may be shown once.
What was measured:
[1] = system: EGFR exon 20 insertion mutated NSCLC; test: Clinical study: duration of treatment and antitumor response, EGFR exon 20 insertion mutated NSCLC (Example 10); assay type: in vivo, human; settings: oral hemifumarate, one value per subject
Description: A clinical study was conducted using Compound I in human subjects having non-small cell lung cancer (NSCLC) comprising EGFR exon 20 insertion mutations, HER2 exon 20 insertion mutations, or HER2 amplification or overexpression. A total of 50 human subjects having non-small cell lung cancer comprising one or more EGFR exon 20 insertion mutations, HER2 exon 20 insertion mutations, or HER2 amplification or overexpression were enrolled in the study as of Jul. 31, 2023 with data collected as of Sep. 26, 2023. The subjects were enrolled into one of ten dosing cohorts that were each orally administered Compound I in the form of a hemifumarate salt as shown in Table 13 (QD=once per day; BID=twice per day).
Duration of treatment and antitumor responses achieved in evaluable subjects with EGFR exon 20 insertion mutated NSCLC (dose level greater than or equal to 45 mg TDD and at least one post-baseline tumor assessment) who were administered Compound I in the form of a hemifumarate salt are set forth in Tables 19 and 20, respectively.

[2] = system: Ba/F3 cells expressing EGFR WT; test: Cell viability (CellTiter-Glo); assay type: cell-based; settings: Mus musculus, BaF3; 72 hours; average ± standard deviation; read-out: Absolute EC50 (50% growth)
Description: (§1) A cell-based assay was used to evaluate the potency of Compound I on cells where the growth of the cells is either driven by EGFR wild type (WT) or cells comprising atypical mutant EGFR proteins. Cell viability was assessed following treatment with compounds and the assay developed with CellTiterGlo (CTG) reagent that measures ATP levels in cells. Compound I was dissolved in DMSO to generate a 10 mM stock solution. Dosing solutions were prepared by serial dilution in DMSO followed by dilution in complete media to result in a 0.4% DMSO in the assay. Ba/F3 cells expressing EGFR mutants EGFR_G719S, EGFR_G724S, EGFR_L718Q, EGFR_L718V, EGFR_L858R/1L718Q, EGFR_L858R/1L718V, EGFR_del19/L792K. EGFR_del19/G796S were generated following co-transfection of the EGFR mutant of interest with PhiC31 integrase. Two days following transfection, the media was changed and replaced with media lacking mIL3 with the addition of human EGF (hEGF) as well as puromycin to select stable cell lines. After the cell lines were established genomic DNA (gDNA) was extracted to confirm the sequence of the construct of interest. The culture Media for Ba/F3 EGFR mutants was RPMI+10% FBS+2 mM L-Glut±10 ng/ml hEGF+0.5 pig/ml puromycin. The following reagents were used to conduct the assays: RPMI1640 with phenol red (Corning, Cat #: 15-040-CV); Fetal Bovine Serum (FBS) (Omega Scientific, Cat #: FR-11); Human Epidermal Growth Factor (hEGF) (Cell Signaling Cat #8916SC); L-Glutamine (Corning, Cat #: 25-005-CI); Puromycin (Gibco, Cat #A11138-03); assay media was the same as culture medium; CellTiter-Glo® 2.0 Cell Viability Assay (Promega, Cat #G9243), DMSO (Sigma, Cat #: D2660). The following equipment was used to conduct the assays: Bravo Liquid Handler (Agilent #G5523BA); and the following supplies: 96-well Non-Sterile Polypropylene V Bottom Plates (Corning, Cat #: 3363); 384-well Sterile White with Flat Clear Bottom Plates (Greiner, 781098); and PerkinElmer TopSeal-A Plus plate seal (Cat. #6050185).
(§2) Ba/F3 cell lines expressing either EGFR WT or mutant proteins were cultured in complete culture media at exponential growth phase for at least one week prior to assay. The different cell suspensions were counted and seeded into 384-well Sterile White Flat Clear Bottom Plates using a Bravo liquid handler, according to the appropriate cell number in 36 μl of media per well as follows: (a) Ba/F3-WT-EGFR: 2000 cells per well of a 384 well plate; (b) Ba/F3-G719S-EGFR: 2000 cells per well of a 384 well plate; (c) Ba/F3 G724S-EGFR: 1000 cells per well of a 384 well plate; (d) Ba/F3-L718Q-EGFR: 1000 cells per well of a 384 well plate; (e) Ba/F3-L718V-EGFR: 1000 cells per well of a 384 well plate; (f) Ba/F3-L858R/L718Q-EGFR: 1000 cells per well of a 384 well plate; (g) Ba/F3-L858R/L718V-EGFR: 1000 cells per well of a 384 well plate; (h) Ba/F3-del19/L792H-EGFR: 1000 cells per well of a 384 well plate; (i) Ba/F3-del19/G796S-EGFR: 1000 cells per well of a 384 well plate.
(§3) Compound I was solubilized in DMSO as 10 mM stock solutions. These were stored as aliquots at −80° C. and used only once after thawing. The highest concentration of Compound I in the final assay plate was 500 nM. To prepare the compound dilutions intermediate dilution plates were prepared using the Bravo liquid handler by performing 12-point ⅓-fold serial dilutions in DMSO to a final concentration of 250-fold the concentration in the final assay plate, followed by a 1/25 dilution into complete assay media. Compound dilutions in media were added to cells (final assay plate) by dispensing 4 μL into cells plated the same day in 36 μl of medium of media. Plates were placed in a 37° C., 5% CO2 incubator. Following 72 hours of incubation, plates were left to equilibrate at room temperature before the addition of 1:1 ratio of CTG 2.0 using the Bravo liquid handler. […]

[3] = system: Ba/F3 cells expressing EGFR_L718V; test: Cell viability (CellTiter-Glo); assay type: cell-based; settings: Mus musculus, BaF3; 72 hours; average ± standard deviation; read-out: Absolute EC50 (50% growth)
Description: as §1, §2, §3

[4] = system: Ba/F3 cells expressing EGFR_L718Q; test: Cell viability (CellTiter-Glo); assay type: cell-based; settings: Mus musculus, BaF3; 72 hours; average ± standard deviation; read-out: Absolute EC50 (50% growth)
Description: as §1, §2, §3

[5] = system: Ba/F3 cells expressing EGFR_G724S; test: Cell viability (CellTiter-Glo); assay type: cell-based; settings: Mus musculus, BaF3; 72 hours; average ± standard deviation; read-out: Absolute EC50 (50% growth)
Description: as §1, §2, §3

[6] = system: Ba/F3 cells expressing EGFR_del19/L792H; test: Cell viability (CellTiter-Glo); assay type: cell-based; settings: Mus musculus, BaF3, 72 h, read-out: Absolute EC50 (50% growth)
Description: as §1, §2, §3

[7] = system: Ba/F3 cells expressing EGFR_L858R/L718Q; test: Cell viability (CellTiter-Glo); assay type: cell-based; settings: Mus musculus, BaF3; 72 hours; average ± standard deviation; read-out: Absolute EC50 (50% growth)
Description: as §1, §2, §3

[8] = system: Ba/F3 cells expressing EGFR_L858R/L718V; test: Cell viability (CellTiter-Glo); assay type: cell-based; settings: Mus musculus, BaF3; 72 hours; average ± standard deviation; read-out: Absolute EC50 (50% growth)
Description: as §1, §2, §3

[9] = system: Ba/F3 cells expressing EGFR_G719S; test: Cell viability (CellTiter-Glo); assay type: cell-based; settings: Mus musculus, BaF3; 72 hours; average ± standard deviation; read-out: Absolute EC50 (50% growth)
Description: as §1, §2, §3

[10] = system: Ba/F3 cells expressing EGFR_del19/G796S; test: Cell viability (CellTiter-Glo); assay type: cell-based; settings: Mus musculus, BaF3; 72 hours; average ± standard deviation; read-out: Absolute EC50 (50% growth)
Description: as §1, §2, §3

C=CC(=O)Nc1cc(Nc2cc(N3OCC[C@@H]3c3cc(F)cc(F)c3)ncn2)c(OC)cc1N1CCC(N2CCN(C3CC3)CC2)CC1 [Compound I, N-[2-[4-(4-cyclopropyl-1-piperazinyl)-1-piperidinyl]-5-[[6-[(3R)-3-(3,5-difluorophenyl)-2-isoxazolidinyl]-4-pyrimidinyl]amino]-4-methoxyphenyl]-2-propenamide]
Duration of treatment ([1]; dosing cohort 30 BID): ongoing
Duration of treatment ([1]; dosing cohort 45 QD): 84 days and ongoing and 134 days and 28 days
Duration of treatment ([1]; dosing cohort 60 QD): 33 days and ongoing and 20 days
Duration of treatment ([1]; dosing cohort 75 QD): 90 days and 109 days and 20 days and ongoing
Duration of treatment ([1]; dosing cohort 90 QD): 28 days and 52 days
EC50 [2]: 6.6 ± 4.3 nM
EC50 [3]: 0.9 ± 0.8 nM
EC50 [4]: 27.1 ± 6.4 nM
EC50 [5]: 1.4 ± 0.9 nM
EC50 [6]: 2.5 ± 1.8 nM
EC50 [7]: 0.8 ± 0.5 nM
EC50 [8]: 0.2 ± 0.2 nM
EC50 [9]: 0.7 ± 0.1 nM
EC50 [10]: 1.1 ± 0.7 nM

— patent US20260306491A1, “EGFR INHIBITOR FOR TREATING CANCERS COMPRISING ATYPICAL EGFR MUTATIONS” (ORIC Pharmaceuticals, Inc., priority 2023, published 2026)
